{"source": "patent US20060035314A1", "about": "“Receptors and signalling proteins capable of binding meiotic acting sterols (MAS)” (priority 2000, published 2006)", "system": "Mouse Oocytes", "test": "Microinjection of antisense/sense oligonucleotides into mouse oocytes; FF-MAS-triggered resumption of meiosis (GVBD)", "format": "cell-based", "conditions": "10 μM FF-MAS (24 hours); added 20 hours after injection of approx. 12 pg of each oligonucleotide; hypoxanthine containing medium", "from_the_text": "Two antisense oligonucleotides (20 nucleotides) were utilized for microinjection: 5′-[…]-3′ and 5′-[…]-3′, complementary to the kozak sequence of the mRNA encoded by the cDNA sequence herein designated SAM1a and SAM1b, respectively, both of which are defined in SEQ ID NO: 1 and SEQ ID NO: 3, respectively, shown below. In control experiments, the corresponding sense oligonucleotides were microinjected: 5′-[…]-3′ and 5′-[…]-3′ for mRNA SAM1a and SAM1b, respectively. SAM1a antisense was co-injected with SAM1b antisense from a stock solution containing 1.25 μg/μl of each nucleotide in 10% human serum albumin (hereinafter designated HSA) plus 5 mM Tris (pH value: 7.5). SAM1a sense was co-injected with SAM1b sense from a stock solution containing 1.25 μg/μl of each nucleotide in 10% HSA plus 5 mM Tris (pH value: 7.5). Approximately 12 pg of each oligonucleotide ([…]) were injected into the cytoplasma of individual germinal vesicle (GV)-stage oocytes loaded in a droplet of alpha-MEM supplemented with 0.8% HSA and 3 mM hypoxantine under mineral oil in a 35 mm petri dish on the stage of an inverted microscope. […] The effect of FF-MAS was evaluated after 24 hours of further incubation as the number of oocytes in germinal vesicle breakdown (hereinafter designated GVBD). […]", "data": [{"smiles": "CC(C)=CCC[C@@H](C)[C@H]1CC=C2C3=C(CC[C@@]21C)[C@@]1(C)CC[C@H](O)C(C)(C)[C@@H]1CC3", "note": "[FF-MAS, 4,4-dimethyl-5α-cholesta-8,14,24-triene-3β-ol]", "values": [{"measurement": "GVBD/GVBD + GV", "value": "26/29"}]}]}
